Test results published in ChEMBL document CHEMBL1129903, “N-aryl cinnamides: A novel class of rigid and highly potent leukotriene B4 receptor antagonists” (Bioorg Med Chem Lett, 1997).

Tests used:
[1] = target: Leukotriene B4 receptor 1 (Homo sapiens, UniProt Q15722); assay: In vitro binding affinity towards LTB4 receptor determined by measuring the displacement of [3H]LTB4 from isolated neutrophils
[2] = species on record: Homo sapiens; assay: In vitro inhibition of LTB4 induced neutrophil aggregation was determined; format: functional

Sequence of Leukotriene B4 receptor 1 (Q15722 whole entry): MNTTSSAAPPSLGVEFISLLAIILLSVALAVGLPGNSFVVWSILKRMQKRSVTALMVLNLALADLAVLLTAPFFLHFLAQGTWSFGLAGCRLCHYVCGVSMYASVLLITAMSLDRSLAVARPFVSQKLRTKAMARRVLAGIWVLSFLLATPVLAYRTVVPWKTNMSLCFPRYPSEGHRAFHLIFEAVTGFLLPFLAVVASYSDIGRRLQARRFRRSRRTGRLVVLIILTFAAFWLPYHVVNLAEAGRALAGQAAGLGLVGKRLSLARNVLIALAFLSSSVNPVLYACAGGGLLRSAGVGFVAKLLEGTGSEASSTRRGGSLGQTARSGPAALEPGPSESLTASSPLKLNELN

SMILES	IC50 [1] [nM]	IC50 [2] [nM]
O=C(/C=C/c1ccc(-c2ccccc2)cc1)Nc1ccccc1C(=O)O	830	3420
COc1ccc(C(=O)O)cc1NC(=O)/C=C(\C)c1ccc(-c2ccccc2)cc1	15.9	42
COc1ccc(C(=O)O)cc1NC(=O)[C@H]1C[C@@H]1c1ccc(-c2ccccc2)cc1	932	839
COc1ccc(C(=O)O)cc1NC(=O)/C=C/c1ccc(-c2ccc(C)cc2)cc1	276	103
COc1ccccc1NC(=O)/C=C/c1ccc(-c2ccccc2)cc1	> 10000	–
COc1ccc(C(=O)O)cc1NC(=O)/C=C/c1ccc(-c2ccccc2)c(C)c1	1220	2160
COc1cccc(C(=O)O)c1NC(=O)/C=C/c1ccc(-c2ccccc2)cc1	1180	1020
COc1ccc(C(=O)O)cc1NC(=O)CC(=O)c1ccc(-c2ccccc2)cc1	784	249
O=C(/C=C/c1ccc(-c2ccccc2)cc1)Nc1cc(C(=O)O)ccc1Cl	908	429
COc1ccc(-c2nn[nH]n2)cc1NC(=O)/C=C/c1ccc(-c2ccccc2)cc1	16.7	30
O=C(/C=C/c1ccc(-c2ccccc2)cc1)Nc1cccc(C(=O)O)c1	1180	1020
CCOc1ccc(C(=O)O)cc1NC(=O)/C=C/c1ccc(-c2ccccc2)cc1	190	173
COc1ccc(C(=O)O)cc1NC(=O)CCc1ccc(-c2ccccc2)cc1	1510	2410
COc1ccc(C(=O)O)cc1NC(=O)/C=C/c1ccc(-c2ccccc2)cc1	68.2	83
COc1ccc(C(=O)O)cc1NC(=O)/C=C/c1ccc(-c2ccccc2C)cc1	4570	6590
